{"source": "patent US12370263B2", "about": "“Cyclic dinucleotide derivative based antibody-drug conjugates” (DAIICHI SANKYO COMPANY, LIMITED, priority 2018, dated 2025)"}
{"target": "T1, HisAviTEV-hSTING (139-342) human wild-type protein (Homo sapiens, UniProt Q86WV6, H232R)", "T1 construct": "made in house; host or cells: E. coli Rosetta 2 (DE3), co-expressed with BirA (1-321)", "T1 sequence (Q86WV6 with tags, fused parts or gaps H232R)": "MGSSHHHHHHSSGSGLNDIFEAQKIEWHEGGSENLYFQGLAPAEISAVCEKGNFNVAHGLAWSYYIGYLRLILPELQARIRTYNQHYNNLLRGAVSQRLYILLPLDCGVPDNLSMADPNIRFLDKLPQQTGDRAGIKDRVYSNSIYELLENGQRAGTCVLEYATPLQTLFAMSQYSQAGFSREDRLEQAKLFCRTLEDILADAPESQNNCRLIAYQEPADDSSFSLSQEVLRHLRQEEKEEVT", "assay": "Protein thermal shift assay, STING C-terminal binding domain protein", "conditions": "test compound final concentration 0.5 mM", "units": {"ΔTm Hu-WT": "°C"}}
{"smiles": "O=C(CO)NCCn1cnc2c(ncn2[C@@H]2O[C@@H]3COP(=O)(S)O[C@H]4[C@@H](F)[C@H](n5cc6c7c(ncnc75)SCCC6)O[C@@H]4COP(=O)(S)O[C@@H]2[C@@H]3O)c1=O", "note": "(single isomer, unassigned) [50b]", "ΔTm Hu-WT": 12.3}
{"target": "Human STING (Homo sapiens, UniProt Q86WV6, G230A/H232R/R293Q/R71H)", "sequence (Q86WV6 whole entry R71H/G230A/H232R/R293Q)": "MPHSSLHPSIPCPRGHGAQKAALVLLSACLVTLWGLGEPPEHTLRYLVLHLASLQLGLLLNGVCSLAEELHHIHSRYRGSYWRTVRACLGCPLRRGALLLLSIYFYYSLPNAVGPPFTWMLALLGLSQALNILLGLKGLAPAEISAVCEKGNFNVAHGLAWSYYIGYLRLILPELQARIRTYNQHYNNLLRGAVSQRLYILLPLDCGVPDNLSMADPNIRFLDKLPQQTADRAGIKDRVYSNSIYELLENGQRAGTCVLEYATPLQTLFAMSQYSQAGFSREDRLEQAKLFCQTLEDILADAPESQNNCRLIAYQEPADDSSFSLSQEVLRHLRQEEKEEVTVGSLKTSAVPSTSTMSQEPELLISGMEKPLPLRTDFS", "assay": "Reporter gene assay, human STING agonist activity, THP1-Dual cells (HAQ-mutated), IRF pathway", "conditions": "THP1-Dual cells IRF EC50, THP1-Dual cells (HAQ-mutated), 24 hours; 100% = maximum count with ML-RR-CDA·2Na+", "units": {"EC50": "nM"}, "method": "Human STING agonist activity was evaluated by using THP1-Dual™ cells (HAQ-mutated) (InvivoGen, CA, US), with which the activation of the pathway of interferon regulatory factor-3 (IRF3), which is present in the downstream of the STING pathway, can be confirmed.\nAssay was performed as follows. First, a test compound diluted with PBS was aliquoted into a transparent 96-well plate (Corning Incorporated, NY, US) at 20 μL/well. Subsequently, reporter cells suspended in assay buffer (an RPMI1640 medium or DMEM medium containing 10% bovine serum albumin) were added at 180 μL/well (1×10^5 cells/well) to initiate stimulation. After the cells were cultured in an environment at 37° C. and 5% CO2 for 24 hours, the resultant was centrifuged to collect the supernatant. To a white 384-well plate, 6 μL of the supernatant collected was added, and 15 μL of QUANTI-Luc (InvivoGen) solution was added thereto. After the resultant was well mixed together, emission was measured by using a plate reader (PerkinElmer, Inc., MA, US)."}
{"smiles": "Nc1ncnc2c1ncn2[C@@H]1O[C@@H]2COP(=O)(S)O[C@H]3[C@@H](O)[C@H](n4cc5c6c(ncnc64)NCCC5)O[C@@H]3COP(=O)(S)O[C@@H]1[C@@H]2O", "note": "(single isomer, unassigned) [1b]", "EC50": 300}
{"smiles": "Nc1ncnc2c1ncn2[C@@H]1O[C@@H]2COP(=O)(S)O[C@H]3[C@@H](O)[C@H](n4cc5c6c(ncnc64)NCCC5)O[C@@H]3COP(=O)(S)O[C@@H]1[C@@H]2O", "note": "(single isomer, unassigned) [2a]", "EC50": 4700}
{"smiles": "NCCn1cnc2c(ncn2[C@@H]2O[C@@H]3COP(=O)(S)O[C@H]4[C@@H](O)[C@H](n5cc6c7c(ncnc75)NCCC6)O[C@@H]4COP(=O)(S)O[C@@H]2[C@@H]3O)c1=O", "note": "(single isomer, unassigned) [5a]", "EC50": 2400}
{"smiles": "O=c1c2ncn([C@@H]3O[C@@H]4COP(=O)(S)O[C@H]5[C@@H](O)[C@H](n6cc7c8c(ncnc86)NCCC7)O[C@@H]5COP(=O)(S)O[C@@H]3[C@@H]4O)c2ncn1CCO", "note": "(single isomer, unassigned) [6b]", "EC50": 2100}
{"smiles": "Nc1nc(NCCO)nc2c1ncn2[C@@H]1O[C@@H]2COP(=O)(S)O[C@H]3[C@@H](O)[C@H](n4cc5c6c(ncnc64)NCCC5)O[C@@H]3COP(=O)(S)O[C@@H]1[C@@H]2O", "note": "(single isomer, unassigned) [9a]", "EC50": 5700}
{"smiles": "CC(C)(N)CNc1nc(N)c2ncn([C@@H]3O[C@@H]4COP(=O)(S)O[C@H]5[C@@H](O)[C@H](n6cc7c8c(ncnc86)NCCC7)O[C@@H]5COP(=O)(S)O[C@@H]3[C@@H]4O)c2n1", "note": "(single isomer, unassigned) [10a]", "EC50": 6300}
{"smiles": "NCc1nc(N)c2ncn([C@@H]3O[C@@H]4COP(=O)(S)O[C@H]5[C@@H](O)[C@H](n6cc7c8c(ncnc86)NCCC7)O[C@@H]5COP(=O)(S)O[C@@H]3[C@@H]4O)c2n1", "note": "(single isomer, unassigned) [11a]", "EC50": 4000}
{"smiles": "Nc1nc(CO)nc2c1ncn2[C@@H]1O[C@@H]2COP(=O)(S)O[C@H]3[C@@H](O)[C@H](n4cc5c6c(ncnc64)NCCC5)O[C@@H]3COP(=O)(S)O[C@@H]1[C@@H]2O", "note": "(single isomer, unassigned) [12b]", "EC50": 1800}
{"smiles": "Nc1ncnc2c1ncn2[C@@H]1O[C@@H]2COP(=O)(S)O[C@H]3[C@@H](O)[C@H](n4cc5c6c(ncnc64)OCCC5)O[C@@H]3COP(=O)(S)O[C@@H]1[C@@H]2O", "note": "(single isomer, unassigned) [20b]", "EC50": 400}
{"smiles": "Nc1ncnc2c1ncn2[C@@H]1O[C@@H]2COP(=O)(S)O[C@H]3[C@@H](O)[C@H](n4cc5c6c(ncnc64)OCCC5)O[C@@H]3COP(=O)(S)O[C@@H]1[C@@H]2O", "note": "(single isomer, unassigned) [21b]", "EC50": 700}
{"smiles": "C[C@H]1CCc2cn([C@@H]3O[C@@H]4COP(=O)(S)O[C@@H]5[C@H](O)[C@@H](COP(=O)(S)O[C@H]4[C@H]3O)O[C@H]5n3cnc4c(N)ncnc43)c3ncnc(c23)O1", "note": "(single isomer, unassigned) [22b]", "EC50": 4300}
{"smiles": "Nc1ncnc2c1ncn2[C@@H]1O[C@@H]2COP(=O)(S)O[C@H]3[C@@H](O)[C@H](n4cc5c6c(ncnc64)SCCC5)O[C@@H]3COP(=O)(S)O[C@@H]1[C@@H]2O", "note": "(single isomer, unassigned) [23b]", "EC50": 55}
{"smiles": "O=c1c2ncn([C@@H]3O[C@@H]4COP(=O)(S)O[C@H]5[C@@H](O)[C@H](n6cc7c8c(ncnc86)NCCC7)O[C@@H]5COP(=O)(S)O[C@@H]3[C@@H]4O)c2ncn1CCCO", "note": "(single isomer, unassigned) [26a]", "EC50": 1400}
{"smiles": "O=c1c2ncn([C@@H]3O[C@@H]4COP(=O)(S)O[C@H]5C[C@H](n6cc7c8c(ncnc86)NCCC7)O[C@@H]5COP(=O)(S)O[C@@H]3[C@@H]4O)c2ncn1CCO", "note": "(single isomer, unassigned) [32a]", "EC50": 1200}
{"smiles": "O=c1c2ncn([C@@H]3O[C@@H]4COP(=O)(S)O[C@H]5C[C@H](n6cc7c8c(ncnc86)NCCC7)O[C@@H]5COP(=O)(S)O[C@@H]3[C@@H]4O)c2ncn1CCO", "note": "(single isomer, unassigned) [32b]", "EC50": 6400}
{"smiles": "O=c1c2ncn([C@@H]3O[C@@H]4COP(=O)(S)O[C@H]5[C@H](F)[C@H](n6cc7c8c(ncnc86)NCCC7)O[C@@H]5COP(=O)(S)O[C@@H]3[C@@H]4O)c2ncn1CCO", "note": "(single isomer, unassigned) [33a]", "EC50": 180}
{"smiles": "O=c1c2ncn([C@@H]3O[C@@H]4COP(=O)(S)O[C@H]5[C@@H](F)[C@H](n6cc7c8c(ncnc86)NCCC7)O[C@@H]5COP(=O)(S)O[C@@H]3[C@@H]4O)c2ncn1CCO", "note": "(single isomer, unassigned) [34b]", "EC50": 550}
{"smiles": "O=c1c2ncn([C@@H]3O[C@@H]4COP(=O)(S)O[C@H]5[C@@H](O)[C@H](n6cc7c8c(ncnc86)NCCC7)O[C@@H]5COP(=O)(S)O[C@@H]3C4)c2ncn1CCO", "note": "(single isomer, unassigned) [38a]", "EC50": 450}
{"smiles": "O=c1c2ncn([C@@H]3O[C@@H]4COP(=O)(S)O[C@H]5[C@@H](O)[C@H](n6cc7c8c(ncnc86)NCCC7)O[C@@H]5COP(=O)(S)O[C@@H]3C4)c2ncn1CCO", "note": "(single isomer, unassigned) [38b]", "EC50": 1600}
{"smiles": "O=c1c2ncn([C@@H]3O[C@@H]4COP(=O)(S)O[C@H]5[C@@H](O)[C@H](n6cc7c8c(ncnc86)NCCC7)O[C@@H]5COP(=O)(S)O[C@@H]3[C@@H]4F)c2ncn1CCO", "note": "(single isomer, unassigned) [39b]", "EC50": 410}
{"smiles": "NCCn1cnc2c(ncn2[C@@H]2O[C@@H]3COP(=O)(S)O[C@H]4[C@@H](O)[C@H](n5cc6c7c(ncnc75)NCCC6)O[C@@H]4COP(=O)(S)O[C@@H]2[C@@H]3F)c1=O", "note": "(single isomer, unassigned) [40a]", "EC50": 3400}
{"smiles": "NCCn1cnc2c(ncn2[C@@H]2O[C@@H]3COP(=O)(S)O[C@H]4[C@@H](O)[C@H](n5cc6c7c(ncnc75)NCCC6)O[C@@H]4COP(=O)(S)O[C@@H]2[C@@H]3F)c1=O", "note": "(single isomer, unassigned) [40b]", "EC50": 3200}
{"smiles": "O=C(CO)NCCn1cnc2c(ncn2[C@@H]2O[C@@H]3COP(=O)(S)O[C@H]4[C@@H](O)[C@H](n5cc6c7c(ncnc75)NCCC6)O[C@@H]4COP(=O)(S)O[C@@H]2[C@@H]3F)c1=O", "note": "(single isomer, unassigned) [41a]", "EC50": 1100}
{"smiles": "O=C(CO)NCCn1cnc2c(ncn2[C@@H]2O[C@@H]3COP(=O)(S)O[C@H]4[C@@H](O)[C@H](n5cc6c7c(ncnc75)NCCC6)O[C@@H]4COP(=O)(S)O[C@@H]2[C@@H]3F)c1=O", "note": "(single isomer, unassigned) [41b]", "EC50": 3600}
{"smiles": "O=c1c2ncn([C@@H]3O[C@@H]4COP(=O)(S)O[C@H]5[C@@H](F)[C@H](n6cc7c8c(ncnc86)NCCC7)O[C@@H]5COP(=O)(S)O[C@@H]3[C@@H]4F)c2ncn1CCO", "note": "(single isomer, unassigned) [44b]", "EC50": 350}
{"smiles": "O=c1c2ncn([C@@H]3O[C@@H]4COP(=O)(S)O[C@H]5[C@@H](F)[C@H](n6cc7c8c(ncnc86)SCCC7)O[C@@H]5COP(=O)(S)O[C@@H]3[C@@H]4O)c2ncn1CCO", "note": "(single isomer, unassigned) [48b]", "EC50": 39}
{"smiles": "NCCn1cnc2c(ncn2[C@@H]2O[C@@H]3COP(=O)(S)O[C@H]4[C@@H](F)[C@H](n5cc6c7c(ncnc75)SCCC6)O[C@@H]4COP(=O)(S)O[C@@H]2[C@@H]3O)c1=O", "note": "(single isomer, unassigned) [49a]", "EC50": 330}
{"smiles": "O=C(CO)NCCn1cnc2c(ncn2[C@@H]2O[C@@H]3COP(=O)(S)O[C@H]4[C@@H](F)[C@H](n5cc6c7c(ncnc75)SCCC6)O[C@@H]4COP(=O)(S)O[C@@H]2[C@@H]3O)c1=O", "note": "(single isomer, unassigned) [50b]", "EC50": 200}
{"smiles": "NCCNc1nc(N)c2ncn([C@@H]3O[C@@H]4COP(=O)(S)O[C@H]5[C@@H](F)[C@H](n6cc7c8c(ncnc86)SCCC7)O[C@@H]5COP(=O)(S)O[C@@H]3[C@@H]4F)c2n1", "note": "(single isomer, unassigned) [51a]", "EC50": 320}
{"smiles": "O=c1c2ncn([C@@H]3O[C@@H]4COP(=O)(O)O[C@H]5[C@@H](F)[C@H](n6cc7c8c(ncnc86)NCCC7)O[C@@H]5COP(=O)(S)O[C@@H]3[C@@H]4O)c2ncn1CCO", "note": "(single isomer, unassigned) [52b]", "EC50": 460}
{"smiles": "Nc1ncnc2c1ncn2[C@@H]1O[C@@H]2COP(=O)(S)O[C@H]3[C@@H](O)[C@H](n4cc5c6c(ncnc64)NCCC5)O[C@@H]3COP(=O)(S)O[C@@H]1[C@@H]2O", "note": "(stereo partly drawn) [47a, Disodium (2S,5R,7R,8R,12aR,14R,15R,15aS,16R)-7-(6-amino-9H-purin-9-yl)-15,16-dihydroxy-2-oxo-10-sulfanylidene-14-(6,7,8,9-tetrahydro-2H-2,3,5,6-tetraazabenzo[cd]azulen-2-yl)octahydro-2H,10H,12H-5,8-methano-2λ^5,10λ^5-furo[3,2-1][1,3,6,9,11,2,10]pentaoxadiphosphacyclotetradecine-2,10-bis(thiolate)]", "EC50": 580}
{"target": "Human STING (Homo sapiens, UniProt Q86WV6, G230A/H232R/R293Q/R71H)", "assay": "Reporter gene assay, human STING agonist activity, THP1-Dual cells (HAQ-mutated), IRF pathway", "conditions": "read-out: THP1-Dual cells IRF EC50; THP1-Dual cells (HAQ-mutated), 24 hours; 100% = maximum count with ML-RR-CDA·2Na+", "units": {"EC50": "nM"}}
{"smiles": "Nc1ncnc2c1ncn2[C@@H]1O[C@@H]2COP(=O)(S)O[C@@H]3[C@@H](COP(=O)(S)O[C@@H]1[C@@H]2O)C[C@@H](n1cc2c4c(ncnc41)NCCC2)[C@@H]3O", "note": "(single isomer, unassigned) [46a]", "EC50": 3900}
{"smiles": "Nc1ncnc2c1ncn2[C@@H]1O[C@@H]2COP(=O)(S)O[C@@H]3[C@@H](COP(=O)(S)O[C@@H]1[C@@H]2O)C[C@@H](n1cc2c4c(ncnc41)NCCC2)[C@@H]3O", "note": "(single isomer, unassigned) [46b]", "EC50": 870}
